Experimental data published in US12534451B2, “Small molecule modulators of PanK” (St. Jude Children's Research Hospital, priority 2019, dated 2026).

Key:
human PANK3 = human PANK3 (Homo sapiens (Human), UniProt Q9H999); assay: PANK activity assay (radiochemical, D-[1-14C]pantothenate); type: biochemical; settings: 5 nM human PANK3, 2.5 mM ATP, 45 μM pantothenate, 10 min at 37° C.; average ± data range
Description: The PanK activity and Surface Plasmon Resonance assays were conducted as explained in the literature.
If the IC^50 was determined to be in the nM range then the assay was repeated in the presence of 0-1 μM or 0-0.1 μM compound to more precisely determine the IC^50. All the experiments were repeated twice in duplicate and the data were an average ±data range.
The experiments mimicking the mixture of ligands present in vivo were performed under different conditions. […] The IC^50 values for the structure-activity study were calculated by fitting the inhibition data to a one-site model of the Michaelis-Menten equation. […] Thus, the data were fit to Morrison's quadratic equation (GraphPad software) that accounts for the impact of enzyme inhibitor binding on the free concentration of inhibitor.

[1] = test system: Human C3A [HepG2/C3A] cells; assay: Cellular total CoA determination in C3A cells; type: cell-based; settings: 24 hrs of treatment
Description: Human C3A [HepG2/C3A, derivative of HepG2] cells (ATCC #CRL-10741) were purchased from ATCC® and maintained in Eagle's minimum Essential medium (ATCC) supplemented with 2 mM glutamine, 10% fetal bovine serum (FCS, Altanta Biologicals), 50 U/ml penicillin and […] streptomycin. The C3A cell line was confirmed to be mycoplasma-free. Test compounds or vehicle control (DMSO) was added and after 24 hrs of treatment the cells were washed with PBS and harvested and subjected to total CoA determination.
Cultured cells were resuspended in 2 ml cold water to which 500 μl of 0.25M KOH was added, derivatized with monobromobimane (mBBr, Life technologies) and quantified by HPLC. 30 mg of frozen tissue is homogenized in 2 ml of 1 mM KOH and then derivatized with mBBr. The mBBr derivatized samples were fractionated by reverse-phase HPLC using a Gemini C18 3 μm column (150×4.60 mm) from Phenomenex. The chromatography system was a Waters e2695 separation module with a UV/Vis and fluorescence detector and controlled by Empower 3 software. Solvent A was 50 mM potassium phosphate pH 4.6, and solvent B was 100% acetonitrile. Twenty microliters of sample was injected onto the column, and the flow rate was 0.5 ml/min. The HPLC program was the following: starting solvent mixture of 90% A/10% B, 0-2 min isocratic with 10% B, 2-6 min linear gradient from 10% B to 15% B, 6-18 min concave gradient from 15% B to 40% B, 18-23 min isocratic with 40% B, 23-25 min linear gradient from 40 to 10%, and 25-30 min isocratic with 10% B. The UV/vis detector was set at 393 nm, and the fluorescence detector was set with excitation at 393 nm and emission at 470 nm. The elution position of the mBBr-CoA, was determined by comparison with mBBr-CoA prepared from commercial CoA (Avanti Polar Lipids). The areas under the mBBr-derivatized CoA was integrated and compared to known concentrations of the mBBr-CoA standard.

Chain of human PANK3 (Q9H999 whole entry): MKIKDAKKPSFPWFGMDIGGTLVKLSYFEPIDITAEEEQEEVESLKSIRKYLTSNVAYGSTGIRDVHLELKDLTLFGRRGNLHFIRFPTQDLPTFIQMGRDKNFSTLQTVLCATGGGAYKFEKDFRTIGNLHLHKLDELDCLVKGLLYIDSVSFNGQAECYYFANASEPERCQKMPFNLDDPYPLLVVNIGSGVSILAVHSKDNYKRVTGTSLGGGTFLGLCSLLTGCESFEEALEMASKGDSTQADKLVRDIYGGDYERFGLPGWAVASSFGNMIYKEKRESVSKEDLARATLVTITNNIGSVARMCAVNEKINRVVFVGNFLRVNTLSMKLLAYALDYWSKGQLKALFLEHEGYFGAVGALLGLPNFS

Row | Structure (SMILES) | IC50 (human PANK3) [nM] | C3A CoA% elevation [1] [%]
1 | CN(C)c1ccc(CC(=O)N2CCN(c3nc4c(F)cc(F)cc4s3)CC2)cc1 [Lee-4296] | 25 ± 1.6 | 198.6
2 | CN(C)c1ccc(CC(=O)N2CCN(c3ccc(C#N)nn3)CC2)cc1 [PZ-4060, 6-(4-(2-(4-(dimethylamino)phenyl)acetyl)piperazin-1-yl)pyridazine-3-carbonitrile] |  | 230.5
3 | CN(C)c1ccc(CC(=O)N2CCN(c3ccc(Cl)nn3)CC2)cc1 [PZ-4061, 1-(4-(6-chloropyridazin-3-yl)piperazin-1-yl)-2-(4-(dimethylamino)phenyl)ethanone] |  | 418.7
4 | CC(=O)Nc1ccc(CC(=O)N2CCN(c3ccc(Cl)nn3)CC2)cc1 [PZ-4071, N-(4-(2-(4-(6-chloropyridazin-3-yl)piperazin-1-yl)-2-oxoethyl)phenyl)acetamide] |  | 185.3
5 | CS(=O)(=O)Nc1ccc(CC(=O)N2CCN(c3ccc(Cl)nn3)CC2)cc1 [PZ-4140, N-(4-(2-(4-(6-chloropyridazin-3-yl)piperazin-1-yl)-2-oxoethyl)phenyl)methanesulfonamide] | 3.8 ± 0.1 | 64.4
6 | CS(=O)(=O)Nc1ccc(CC(=O)N2CCN(c3ccc(C#N)nn3)CC2)cc1 [PZ-4202] |  | 183.3
7 | CCS(=O)(=O)Nc1ccc(CC(=O)N2CCN(c3ccc(C#N)nn3)CC2)cc1 [PZ-4215] | 4 ± 0.3 | 160.9
8 | CCS(=O)(=O)Nc1ccc(CC(=O)N2CCN(c3ccc(Cl)nn3)CC2)cc1 [PZ-4216] |  | 54.9
9 | O=C(Cc1ccc(C2CC2)cc1)N1CCN(c2ccc(C(F)(F)F)nn2)CC1 [PZ-4283, 2-(4-cyclopropylphenyl)-1-(4-(6-(trifluoromethyl)pyridazin-3-yl)piperazin-1-yl)ethanone] |  | 218.2
10 | N#Cc1cnc(N2CCN(C(=O)Cc3ccc(C4CC4)cc3)CC2)cn1 [PZ-4284] | 27 ± 4 | 448.2
11 | O=C(Cc1ccc(C2CC2)cc1)N1CCN(c2nc3ccccc3s2)CC1 [PZ-4285] | 26 ± 3 | 223.7
12 | O=C(Cc1ccc(C2CC2)cc1)N1CCN(c2nc3c(F)cc(F)cc3s2)CC1 [PZ-4291] | 2.1 ± 0.1 | 238.4
13 | CS(=O)(=O)Nc1ccc(CC(=O)N2CCN(c3nc4ccccc4s3)CC2)cc1 [PZ-4294] | 13 ± 1.3 | 102.23
14 | CS(=O)(=O)Nc1ccc(CC(=O)N2CCN(c3ccc(C(F)(F)F)nn3)CC2)cc1 [PZ-4295] |  | 140.8
15 | O=C(Cc1ccc(C2CC2)cc1)N1CCN(c2nc3ncccc3s2)CC1 [PZ-4298] | 1 ± 0.1 | 60.1
16 | O=C(Cc1ccc(C2CC2)cc1)N1CCN(c2nc3c(F)cccc3s2)CC1 [PZ-4299] | 7.2 ± 1.3 | 228.4
17 | O=C(Cc1ccc(C2CC2)cc1)N1CCN(c2nc3ccc(F)cc3s2)CC1 [PZ-4300] | 3.9 ± 0.3 | 242.5
18 | O=C(Cc1ccc(C2CC2)cc1)N1CCN(c2nc3cccnc3o2)CC1 [PZ-4301] | 52.9 ± 6.4 | 268.3
19 | O=C(Cc1ccc(C2CC2)cc1)N1CCN(c2nc3ccc(F)cc3o2)CC1 [PZ-4304] | 14.3 ± 0.6 | 167
20 | O=C(Cc1ccc(C2CC2)cc1)N1CCN(c2nc3cc(F)ccc3s2)CC1 [PZ-4306] | 5.4 ± 0.4 | 238.6
21 | O=C(Cc1ccc(C2CC2)cc1)N1CCN(c2nc3ncccc3o2)CC1 [PZ-4314] | 2.9 ± 0.1 | 275
22 | CN(C)c1ccc(CC(=O)N2CCN(c3nc4ncccc4s3)CC2)cc1 [PZ-4316] | 5 ± 0.5 | 183.4
23 | CS(=O)(=O)Nc1ccc(CC(=O)N2CCN(c3nc4ncccc4s3)CC2)cc1 [PZ-4320] | 1.4 ± 0.16 | 58
24 | CS(=O)(=O)Nc1ccc(CC(=O)N2CCN(c3nc4c(F)cccc4s3)CC2)cc1 [PZ-4322] | 4.1 ± 0.49 | 171.6
25 | CS(=O)(=O)Nc1ccc(CC(=O)N2CCN(c3nc4c(F)cc(F)cc4s3)CC2)cc1 [PZ-4324] | 1.3 ± 0.06 | 104.3
